Here are results for seven compounds from patent US11365207B2, “Sulfur-containing polycyclic-hydroxypyridone carboxamide analog against HIV” (priority 2018, dated 2022).

In general, CC50 refers to the concentration at which the toxic effect on the cells reaches its halfway point. By EC50 is commonly meant the concentration that produces a half-maximal response. A lower EC50 goes with higher potency in that assay.

Structures are written as SMILES.

Tested on in the first series: not listed separately
In words: Toxicity test of C8166 cells (MTT colorimetric method). The conditions noted are these: human. It is filed as cell-based. The protocol:
(§1) Human T lymphocytic series C8166 and HIV-1 experiment strain HIV-1IIIB are both from National Institutes of Health (NIH); cells are cultured in the RPMI-1640 complete culture medium containing 10% fetal bovine serum. HIV-1IIIB is prepared by using a conventional method, titration and calculation of TCID 50 of viruses are performed. Virus stock solution is subpackaged and stored at −70° C. Cells and viruses are cryopreserved and recovered according to conventional methods.
6. Toxicity Test of C8166 Cells
100 μl of 4×10^5 ml C8166 was mixed with different to-be-detected drug solutions, and 3 repetition wells were set. Meanwhile, control wells were set. Culture was performed for 3 days under the conditions of 37° C. and 5% CO2. Cytotoxicity was detected with MTT colorimetric method. The OD value was measured with EL ×800 ELIASA, the wavelength was measured as 570/630 nm. The CC50 value was calculated (50% cytotoxic concentration), namely, the concentration of the drug when toxicity was generated for 50% normal T lymphocytic series C8166.
(§2) According to experiment results, fitted curves are drawn using Origin2016, the 50% effective concentrations (EC50) of the samples inhibiting viruses, 50% cell growth inhibition concentrations (CC50) and TI (therapeutic index) value against HIV-1 activity are calculated based on Reed & Muench method, and the TI value is TI=CC50/EC50.
1. Cell growth survival rate (%)=experiment well OD value/control well OD value×100
(In general: Tetrazolium dyes change colour on reduction, which living cells bring about.)
As for `O=C(NCc1c(F)cc(F)cc1F)c1cn2c(c(O)c1=O)C(=O)N1C(C2)S[C@@H]2CC[C@H]1C2` (stereo partly shown) [Compound 34], the CC50 at 3 days worked out at 20700 ± 320 nM.

The series is the same for the next values; noted with them: human, C8166 cells (T lymphocytic cell line); C8166 cells, MTT, 3 days; read-out: CC50.
Regarding `C[C@@H]1CSC2Cn3cc(C(=O)NCc4ccc(F)cc4F)c(=O)c(O)c3C(=O)N21` (stereo partly shown) [Compound 1], the CC50 at 3 days is 20300 ± 210 nM.

For the compound `C[C@H]1CSC2Cn3cc(C(=O)NCc4ccc(F)cc4F)c(=O)c(O)c3C(=O)N21` (stereo partly shown) [Compound 2], the CC50 at 3 days turned out to be 11330 ± 110 nM.

On to `CC[C@@H]1CSC2Cn3cc(C(=O)NCc4ccc(F)cc4F)c(=O)c(O)c3C(=O)N21` (stereo partly shown) [Compound 3], for which the CC50 at 3 days turned out to be 18600 ± 350 nM.

As to `CC[C@H]1CSC2Cn3cc(C(=O)NCc4ccc(F)cc4F)c(=O)c(O)c3C(=O)N21` (stereo partly shown) [Compound 4], the CC50 at 3 days is 18600 ± 350 nM.

On to `CC(C)C1CSC2Cn3cc(C(=O)NCc4ccc(F)cc4F)c(=O)c(O)c3C(=O)N21` (stereo not shown) [Compound 5], for which the cytotoxic concentration (CC50) at 3 days came to 16100 ± 300 nM.

In the case of `CC(C)[C@H]1CSC2Cn3cc(C(=O)NCc4ccc(F)cc4F)c(=O)c(O)c3C(=O)N21` (stereo partly shown) [Compound 6], the 50% cytotoxic concentration (CC50) at 3 days worked out at 22600 ± 480 nM.

The subject of the next series is HIV-1IIIB. As to the kind of experiment: Inhibition of replication in HIV-1IIIB acute infectious C8166 cells (p24 antigen capture ELISA). It is filed as cell-based. Particulars: Human immunodeficiency virus 1, 72 h; P24 antigen, HIV-1IIIB acute infectious C8166 cells, 3 days; values given in pM. The protocol: as §1
5. Measurement of HIV-1 p24 Antigen with p24 Antigen Capture ELISA Method
The 1 μg/plate of anti-mouse IgG Fc antibody was paved at 4° C. for overnight; the plate was sealed with 5% skimmed milk powder 4° C. for overnight; 100 μl/well mouse anti-p24 monoclonal antibody was added at 37° C. for 1 h; 100 μl/well (1:100) diluted rabbit anti-p24 polyclonal antibody (homemade) was added for 1 h at 37° C.; 100 μl/well (1:20000) diluted goat anti-rabbit IgG HRP was added for 1 h at 37° C.; OPD substrate reaction solution was added. After 10 min, 2M sulfuric acid was added to stop the reaction. The OD value was determined by Elx800 ELISA, and the wavelength was measured as 490/630 nm. The inhibition rate and EC50 of the drug on the p24 antigen replication and expression of HIV-1, namely, the concentration of the drug inhibiting 50% HIV-1 p24 antigen were calculated, namely, the concentration of the drug inhibiting 50% HIV-1 p24 antigen expression was calculated.
8. Inhibition Effect of Samples on Replication in Experiment Strain HIV-1IIIB Acute Infectious C8166 Cells
4×10^5 cells/ml C8166 cells and HIV-1IIIB MOI (multiplicity of infection=0.04) are infected for 2 h at 37° C., the obtained mixture is washed three times with PBS to remove free virus ions, 100 μl of cells are inoculated onto the 96-well plate containing 100 μl of to-be-detected compounds having different dilutions and cultured for 3 days under the conditions of 37° C. and 5% CO2. The cultural supernatant is centrifuged and then collected, and finally lysed and inactivated with 0.5% Triton X-100. The inhibition effect of the drug on HIV-1 replication is detected by using the p24 antigen capture ELISA method.
as §2
3. HIV-1 p24 antigen expression inhibition rate (%)=(1−experiment well OD value/control well OD value)×100
A general note: ELISA stands for enzyme-linked immunosorbent assay.
Compound `C[C@@H]1CSC2Cn3cc(C(=O)NCc4ccc(F)cc4F)c(=O)c(O)c3C(=O)N21` (stereo partly shown) [Compound 1] came in with an EC50 of 201 ± 33.3 pM.

As for `C[C@H]1CSC2Cn3cc(C(=O)NCc4ccc(F)cc4F)c(=O)c(O)c3C(=O)N21` (stereo partly shown) [Compound 2], the concentration for a half-maximal effect (EC50) worked out at 18.1 ± 2.86 pM. This EC50 lies about 11-fold lower than the previous one.

With `CC[C@@H]1CSC2Cn3cc(C(=O)NCc4ccc(F)cc4F)c(=O)c(O)c3C(=O)N21` (stereo partly shown) [Compound 3], the concentration giving a half-maximal response (EC50) came out at 35.1 ± 6.02 pM.

As to `CC[C@H]1CSC2Cn3cc(C(=O)NCc4ccc(F)cc4F)c(=O)c(O)c3C(=O)N21` (stereo partly shown) [Compound 4], a half-maximal response (EC50) required 35.1 ± 6.02 pM.

Compound `CC(C)C1CSC2Cn3cc(C(=O)NCc4ccc(F)cc4F)c(=O)c(O)c3C(=O)N21` (stereo not shown) [Compound 5] yielded an EC50 of 188 ± 22.8 pM.

As to `CC(C)[C@H]1CSC2Cn3cc(C(=O)NCc4ccc(F)cc4F)c(=O)c(O)c3C(=O)N21` (stereo partly shown) [Compound 6], the half-maximal effective concentration (EC50) was determined as 208 ± 36.1 pM.

`O=C(NCc1c(F)cc(F)cc1F)c1cn2c(c(O)c1=O)C(=O)N1C(C2)S[C@@H]2CC[C@H]1C2` (stereo partly shown) [Compound 34] registered a concentration for a half-maximal effect (EC50) of 38.1 ± 6.52 pM.

Still in this series, the particulars now being: statement in words.
Take `C[C@H]1CSC2Cn3cc(C(=O)NCc4ccc(F)cc4F)c(=O)c(O)c3C(=O)N21` (stereo partly shown) [Compound 2]: the “inhibitory effect on HIV-1 replication in vitro” value (from here on “inhibitory effect”) was “extremely strong inhibition effects”.

As for `O=C(NCc1c(F)cc(F)cc1F)c1cn2c(c(O)c1=O)C(=O)N1C(C2)S[C@@H]2CC[C@H]1C2` (stereo partly shown) [Compound 34], the “inhibitory effect” value was “extremely strong inhibition effects”.

The same series, now with this note: statement in words; listed as compound 2.
For the compound `C[C@H]1CSC2Cn3cc(C(=O)NCc4ccc(F)cc4F)c(=O)c(O)c3C(=O)N21` (stereo partly shown) [Compound 2], the “inhibitory effect” value is reported as “strong inhibitory effect”.

The series is the same for the next values; noted with them: statement in words; listed as compound 34.
As to `O=C(NCc1c(F)cc(F)cc1F)c1cn2c(c(O)c1=O)C(=O)N1C(C2)S[C@@H]2CC[C@H]1C2` (stereo partly shown) [Compound 34], the “inhibitory effect” value is recorded as “strong inhibitory effect”.

Another series has as its system HIV-1IIIB. As to the kind of experiment: Inhibition experiment for cytopathic effect (CPE) of HIV-1IIIB, syncytia formation in C8166 cells. It is filed as cell-based. Particulars: Human immunodeficiency virus 1, 72 h, HIV-1IIIB in C8166 cells, 3 days, values given in pM. The protocol: as §1
7. Inhibition Experiment for Cytopathic Effect (CPE) of HIV-1IIIB
8×10^5/ml C8166 cells were inoculated onto the 96-well cell culture plate containing 100 μl/well drug subjected to gradient multiple proportion dilution in an amount of 50 μl/well, and then 50 μl HIV-1IIIB was added to dilute the supernatant, 1300 TCID 50/well. 3 repetition wells were set. Meanwhile, normal cell control wells without drugs were set. TDF and dolutegravir were positive drug controls. Culture was performed for 3 days under the conditions of 37° C. and 5% CO2, and syncytia formation were counted under the inverted microscope (100×). EC50 (50% Effective Concentration) is the concentration of the drug when 50% of syncytia formation is inhibited.
as §2
2. HIV-1 cytopathic cell inhibition rate (%)=(1−experiment well syncytia number/control well syncytia number)×100
`C[C@@H]1CSC2Cn3cc(C(=O)NCc4ccc(F)cc4F)c(=O)c(O)c3C(=O)N21` (stereo partly shown) [Compound 1] had an EC50 of 187 ± 31.1 pM.

Compound `C[C@H]1CSC2Cn3cc(C(=O)NCc4ccc(F)cc4F)c(=O)c(O)c3C(=O)N21` (stereo partly shown) [Compound 2] yielded an EC50 of 15.7 ± 2.61 pM. This EC50 is about 12-fold lower than that of the compound before.

With `CC[C@@H]1CSC2Cn3cc(C(=O)NCc4ccc(F)cc4F)c(=O)c(O)c3C(=O)N21` (stereo partly shown) [Compound 3], a half-maximal effect (EC50) was put at 28.9 ± 5.11 pM.

Compound `CC[C@H]1CSC2Cn3cc(C(=O)NCc4ccc(F)cc4F)c(=O)c(O)c3C(=O)N21` (stereo partly shown) [Compound 4] yielded an EC50 of 28.9 ± 5.11 pM.

The compound `CC(C)C1CSC2Cn3cc(C(=O)NCc4ccc(F)cc4F)c(=O)c(O)c3C(=O)N21` (stereo not shown) [Compound 5] yielded an EC50 of 162 ± 18.1 pM.

The compound `CC(C)[C@H]1CSC2Cn3cc(C(=O)NCc4ccc(F)cc4F)c(=O)c(O)c3C(=O)N21` (stereo partly shown) [Compound 6] displayed an EC50 of 182 ± 20.3 pM.

The compound `O=C(NCc1c(F)cc(F)cc1F)c1cn2c(c(O)c1=O)C(=O)N1C(C2)S[C@@H]2CC[C@H]1C2` (stereo partly shown) [Compound 34] came in with an EC50 of 35.9 ± 6.11 pM.
